From patent US7579356B2, “Thia-tetraazaacenaphthylene kinase inhibitors” (Janssen Pharmaceutica NV, priority 2005, dated 2009)
pIC50: −log10 of the molar value.

How the values were obtained:
EGFR = biological target: T1, EGFR (Homo sapiens, UniProt P00533); assay: EGFR Kinase Assay; assay type: biochemical; conditions: for inhibition at 2 µM: test concentration of 2 μM, compounds without an IC50, read-out: EGFR inhibition in percent; for pIC50: GST-EGFR, ATP 5 μM
T1 construct: The intracellular portion of EGFR started at nucleotide 2189 (corresponding to amino acid 667) and ended at the termination codon; made in house; host or cells: Sf9 insect cells (baculovirus)
T1 sequence (P00533 669-1210 limits assumed): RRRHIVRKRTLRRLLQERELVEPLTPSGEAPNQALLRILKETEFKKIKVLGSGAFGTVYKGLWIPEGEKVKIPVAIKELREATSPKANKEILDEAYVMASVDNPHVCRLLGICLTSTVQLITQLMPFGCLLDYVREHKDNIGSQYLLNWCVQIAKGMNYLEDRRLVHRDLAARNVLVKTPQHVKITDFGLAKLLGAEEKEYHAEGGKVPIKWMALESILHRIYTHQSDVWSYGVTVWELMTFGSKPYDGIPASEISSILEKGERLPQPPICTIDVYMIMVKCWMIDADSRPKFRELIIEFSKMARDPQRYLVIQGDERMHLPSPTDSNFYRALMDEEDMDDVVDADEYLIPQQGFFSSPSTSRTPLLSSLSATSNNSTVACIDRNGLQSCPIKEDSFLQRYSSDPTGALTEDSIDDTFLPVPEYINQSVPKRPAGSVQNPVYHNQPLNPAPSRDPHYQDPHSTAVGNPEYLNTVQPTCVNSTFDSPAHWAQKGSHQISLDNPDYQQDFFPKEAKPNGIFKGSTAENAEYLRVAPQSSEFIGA
Method in brief: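 GST-fused human EGFR intracellular domain (from aa 667), Sf9-expressed, phosphorylated biotinylated polyGluTyr with 5 μM ATP plus γ-33P ATP in Tris pH 8.0, MgCl2, vanadate, 1 mM DTT, 1 h at 30 °C. Streptavidin Flashplate scintillation read; triplicate 16-point half-log series from 200 uM; IC50 from % inhibition vs log concentration, else % inhibition at 2 μM.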

HER-2 = biological target: T2, HER-2 (Homo sapiens, UniProt P04626); assay: HER-2 Kinase Assay; assay type: biochemical; conditions: value in parentheses
T2 construct: His6 with thrombin site (N); purchased Proqinase (Freiburg, Germany)
T2 sequence (P04626 679-1255): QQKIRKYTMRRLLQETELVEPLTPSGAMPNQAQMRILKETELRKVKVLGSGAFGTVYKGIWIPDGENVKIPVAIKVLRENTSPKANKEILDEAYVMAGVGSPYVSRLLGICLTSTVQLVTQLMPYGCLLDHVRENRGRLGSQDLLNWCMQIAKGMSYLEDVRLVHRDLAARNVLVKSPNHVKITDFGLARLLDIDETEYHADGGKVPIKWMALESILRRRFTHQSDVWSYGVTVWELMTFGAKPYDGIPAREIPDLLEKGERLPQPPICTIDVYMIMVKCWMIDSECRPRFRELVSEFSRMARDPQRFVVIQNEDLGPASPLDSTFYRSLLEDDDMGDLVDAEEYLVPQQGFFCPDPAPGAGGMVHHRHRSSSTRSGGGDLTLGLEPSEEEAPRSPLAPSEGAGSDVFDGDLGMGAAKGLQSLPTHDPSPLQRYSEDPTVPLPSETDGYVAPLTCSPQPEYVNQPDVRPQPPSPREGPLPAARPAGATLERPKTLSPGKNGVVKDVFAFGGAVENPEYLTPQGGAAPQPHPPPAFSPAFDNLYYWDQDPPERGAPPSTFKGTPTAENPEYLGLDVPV
Method in brief: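 GST/HIS6-tagged HER-2 aa 679–1255 kinase with biotinylated polyGluTyr (1.5 ng/μL), 1 μM ATP plus γ-33P-ATP, Mg2+/Mn2+, DTT, Hepes pH 7.5; 1 h at 30 °C. Substrate phosphorylation captured on streptavidin scintillation plates after EDTA/PBS washes; values are % inhibition at 1 μM or IC50.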

| inhibition at 2 µM (EGFR) [%] | pIC50 (HER-2) | pIC50 (EGFR) | SMILES |
| --- | --- | --- | --- |
| 8 | < 4.00 | – | O=C(Nc1ccc(N2C(=O)Nc3c(C(=O)Nc4ccc(CN5CCOCC5)cc4)sc4ncnc2c34)cc1)c1ccccc1 [Cpd 248, 5-(4-benzoylamino-phenyl)-4-oxo-4,5-dihydro-3H-1-thia-3,5,6,8-tetraaza-acenaphthylene-2-carboxylic acid (4-morpholin-4-ylmethyl-phenyl)-amide] |
| 9 | < 4.00 | – | O=C(Nc1ccc(N2C(=O)Nc3c(C(=O)Nc4ccc(CN5CCCCC5)cc4)sc4ncnc2c34)cc1)c1ccccc1 [Cpd 249, 5-(4-benzoylamino-phenyl)-4-oxo-4,5-dihydro-3H-1-thia-3,5,6,8-tetraaza-acenaphthylene-2-carboxylic acid (4-piperidin-1-ylmethyl-phenyl)-amide] |
| – | 6.55 | 6.85 | O=C(Nc1ccc(CCN2CCCCC2)cc1)c1sc2ncnc3c2c1NC(=O)N3c1cccc2ccoc12 [Cpd 251, 5-benzofuran-7-yl-4-oxo-4,5-dihydro-3H-1-thia-3,5,6,8-tetraaza-acenaphthylene-2-carboxylic acid [4-(2-piperidin-1-yl-ethyl)-phenyl]-amide] |
| – | 6.21 | 6.79 | CN1CCN(Cc2ccc(NC(=O)c3sc4ncnc5c4c3NC(=O)N5c3ccc(OCc4cccc(F)c4)c(Cl)c3)cc2)CC1 [Cpd 252, 5-[3-chloro-4-(3-fluoro-benzyloxy)-phenyl]-4-oxo-4,5-dihydro-3H-1-thia-3,5,6,8-tetraaza-acenaphthylene-2-carboxylic acid [4-(4-methyl-piperazin-1-ylmethyl)-phenyl]-amide] |
| – | 6.46 | 6.92 | CC1COCC(C)N1Cc1ccc(NC(=O)c2sc3ncnc4c3c2NC(=O)N4c2ccc(Oc3ccccc3)cc2)cc1 (centres unmarked) [Cpd 253, 4-oxo-5-(4-phenoxy-phenyl)-4,5-dihydro-3H-1-thia-3,5,6,8-tetraaza-acenaphthylene-2-carboxylic acid [4-(3,5-dimethyl-morpholin-4-ylmethyl)-phenyl]-amide] |
| – | 7.17 | 7.59 | O=C(Nc1ccc(CN2CCC(CO)CC2)cc1)c1sc2ncnc3c2c1NC(=O)N3c1ccc(Oc2ccccc2)cc1 [Cpd 254, 4-oxo-5-(4-phenoxy-phenyl)-4,5-dihydro-3H-1-thia-3,5,6,8-tetraaza-acenaphthylene-2-carboxylic acid [4-(4-hydroxymethyl-piperidin-1-ylmethyl)-phenyl]-amide] |
| – | 7.62 | 7.39 | CC1CCN(Cc2ccc(NC(=O)c3sc4ncnc5c4c3NC(=O)N5c3ccc(Oc4ccccc4)cc3)cc2)CC1 [Cpd 255, 4-oxo-5-(4-phenoxy-phenyl)-4,5-dihydro-3H-1-thia-3,5,6,8-tetraaza-acenaphthylene-2-carboxylic acid [4-(4-methyl-piperidin-1-ylmethyl)-phenyl]-amide] |
| – | 6.35 | 6.49 | O=C(Nc1ccc(CN2CCCC(CO)C2)cc1)c1sc2ncnc3c2c1NC(=O)N3c1ccc(Oc2ccccc2)cc1 (centres unmarked) [Cpd 256, 4-oxo-5-(4-phenoxy-phenyl)-4,5-dihydro-3H-1-thia-3,5,6,8-tetraaza-acenaphthylene-2-carboxylic acid [4-(3-hydroxymethyl-piperidin-1-ylmethyl)-phenyl]-amide] |
| – | 7.24 | 7.28 | CC(C)(C)OC(=O)NC1CCN(Cc2ccc(NC(=O)c3sc4ncnc5c4c3NC(=O)N5c3ccc(Oc4ccccc4)cc3)cc2)CC1 [Cpd 258, [1-(4-{[4-oxo-5-(4-phenoxy-phenyl)-4,5-dihydro-3H-1-thia-3,5,6,8-tetraaza-acenaphthylene-2-carbonyl]-amino}-benzyl)-piperidin-4-yl]-carbamic acid tert-butyl ester] |
| – | 7.55 | 7.43 | CN(C)C1CCN(Cc2ccc(NC(=O)c3sc4ncnc5c4c3NC(=O)N5c3ccc(Oc4ccccc4)cc3)cc2)CC1 [Cpd 260, 4-oxo-5-(4-phenoxy-phenyl)-4,5-dihydro-3H-1-thia-3,5,6,8-tetraaza-acenaphthylene-2-carboxylic acid [4-(4-dimethylamino-piperidin-1-ylmethyl)-phenyl]-amide] |
